Among the data in patent US12187723B2 (BRISTOL-MYERS SQUIBB COMPANY, priority 2019, dated 2025) are IC50 values, retold here.

Broadly, the IC50 is the concentration at which inhibition is half-maximal. Read a high IC50 as a need for much substance.

This test has as its target T1, human TLR7 (Homo sapiens, UniProt Q9NYK1).
T1 construct: host or cells: HEK-Blue cells
T1 sequence (Q9NYK1 27-1049): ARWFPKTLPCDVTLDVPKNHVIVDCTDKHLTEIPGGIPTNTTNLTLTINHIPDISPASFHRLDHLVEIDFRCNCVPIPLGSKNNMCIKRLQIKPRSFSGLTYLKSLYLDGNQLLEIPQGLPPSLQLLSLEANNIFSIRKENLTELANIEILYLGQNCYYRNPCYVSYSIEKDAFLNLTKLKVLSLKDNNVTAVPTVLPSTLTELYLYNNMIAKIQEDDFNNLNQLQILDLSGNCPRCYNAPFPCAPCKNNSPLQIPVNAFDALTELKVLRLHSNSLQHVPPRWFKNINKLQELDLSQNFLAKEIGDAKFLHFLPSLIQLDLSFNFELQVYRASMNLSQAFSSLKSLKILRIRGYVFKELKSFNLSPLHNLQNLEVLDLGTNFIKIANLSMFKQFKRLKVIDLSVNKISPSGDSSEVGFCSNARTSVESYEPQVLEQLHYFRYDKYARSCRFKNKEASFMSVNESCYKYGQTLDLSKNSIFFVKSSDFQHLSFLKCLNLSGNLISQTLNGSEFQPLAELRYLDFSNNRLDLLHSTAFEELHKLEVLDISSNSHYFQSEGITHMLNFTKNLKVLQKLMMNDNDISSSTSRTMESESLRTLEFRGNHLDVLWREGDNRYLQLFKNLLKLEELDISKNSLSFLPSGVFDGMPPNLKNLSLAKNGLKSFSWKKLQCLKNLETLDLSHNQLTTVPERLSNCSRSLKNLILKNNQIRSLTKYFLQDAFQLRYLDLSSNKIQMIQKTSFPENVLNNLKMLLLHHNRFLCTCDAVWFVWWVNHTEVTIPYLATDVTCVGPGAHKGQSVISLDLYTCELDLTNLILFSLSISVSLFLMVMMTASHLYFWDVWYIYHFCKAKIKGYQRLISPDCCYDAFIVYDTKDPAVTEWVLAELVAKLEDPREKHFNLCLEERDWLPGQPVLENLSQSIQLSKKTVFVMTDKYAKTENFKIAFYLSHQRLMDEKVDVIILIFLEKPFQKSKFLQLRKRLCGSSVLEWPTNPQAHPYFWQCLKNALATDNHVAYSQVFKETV
Briefly: TLR7 inhibition reporter assay (HEK-Blue SEAP). To be noted: HEK-Blue cells overexpressing human TLR7, gardiquimod 7.5 μM, 22 hour incubation. It counts as cell-based. The procedure, abridged: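 Cells (15000/well for TLR7, 20,000 for TLR8) were treated with compounds over 0.05 nM-50 μM final. After 22 h at 37° C, 5% CO2, SEAP was measured with HEK-Blue Detection reagent; percent inhibition was taken as reduction of agonist-plus-DMSO signal relative to a known inhibitor.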
In general terms: Reporter assays use an easily measured gene product as a stand-in for the process of interest.
Compound `COc1cc(-c2cc3[nH]c(=O)n([C@@H]4CCCN(CC(C)(C)C)C4)c3cc2C)cn2ncnc12` [Example 71, (R)-5-(8-methoxy-[1,2,4]triazolo[1,5-a]pyridin-6-yl)-6-methyl-1-(1-neopentylpiperidin-3-yl)-1,3-dihydro-2H-benzo[d]imidazol-2-one] came in with a 50% inhibitory concentration (IC50) of 22.5 nM.
To `COc1cc(-c2cc3[nH]c(=O)n([C@@H]4CCCN(C5COC5)C4)c3cc2C)cn2ncnc12` [Example 72, (R)-5-(8-methoxy-[1,2,4]triazolo[1,5-a]pyridin-6-yl)-6-methyl-1-(1-(oxetan-3-yl)piperidin-3-yl)-1,3-dihydro-2H-benzo[d]imidazol-2-one] belongs 676 nM; to `CCCN[C@H]1CC[C@@H](n2c(=O)[nH]c3cc(-c4cc(OC)c5ncnn5c4)c(C)cc32)CC1` [Example 64, 5-(8-methoxy-[1,2,4]triazolo[1,5-a]pyridin-6-yl)-6-methyl-1-((1s,4s)-4-(propylamino)cyclohexyl)-1,3-dihydro-2H-benzo[d]imidazol-2-one], 6.71 nM; to `CCC(CC)N1CCC[C@@H](n2c(=O)[nH]c3cc(-c4cc(OC)c5ncnn5c4)c(C)cc32)C1` [Example 67, (R)-5-(8-methoxy-[1,2,4]triazolo[1,5-a]pyridin-6-yl)-6-methyl-1-(1-(pentan-3-yl)piperidin-3-yl)-1,3-dihydro-2H-benzo[d]imidazol-2-one], 33 nM.
`COc1cc(-c2cc3[nH]c(=O)n([C@H]4CC[C@@H](NC5COC5)CC4)c3cc2C)cn2ncnc12` [Example 59, 5-(8-methoxy-[1,2,4]triazolo[1,5-a]pyridin-6-yl)-6-methyl-1-((1s,4s)-4-(oxetan-3-ylamino)cyclohexyl)-1,3-dihydro-2H-benzo[d]imidazol-2-one]: the IC50 came to 67.1 nM.
With `Cc1cc2c(cc1-c1cc(C)c3ncnn3c1)[nH]c(=O)n2C1CCN(C(C)C)CC1` [Example 2, 1-(1-isopropylpiperidin-4-yl)-6-methyl-5-(8-methyl-[1,2,4]triazolo[1,5-a]pyridin-6-yl)-1,3-dihydro-2H-benzo[d]imidazol-2-one], inhibition was half-maximal at 68.8 nM (IC50).
`Cc1cc2c(cc1-c1cc(C)c3ncnn3c1)[nH]c(=O)n2[C@H]1CCCN(CC(N)=O)C1` [Example 92, (S)-2-(3-(6-methyl-5-(8-methyl-[1,2,4]triazolo[1,5-a]pyridin-6-yl)-2-oxo-2,3-dihydro-1H-benzo[d]imidazol-1-yl)piperidin-1-yl)acetamide] came in with an IC50 of 820 nM.
`COc1cc(-c2cc3[nH]c(=O)n([C@H]4CC[C@@H](NCC(C)C)CC4)c3cc2C)cn2ncnc12` [Example 61, 1-((1s,4s)-4-(isobutylamino)cyclohexyl)-5-(8-methoxy-[1,2,4]triazolo[1,5-a]pyridin-6-yl)-6-methyl-1,3-dihydro-2H-benzo[d]imidazol-2-one] had a half-maximal inhibitory concentration (IC50) of 20.6 nM.
Regarding `COc1cc(-c2cc3[nH]c(=O)n([C@@H]4CCCN(C5CCOCC5)C4)c3cc2C)cn2ncnc12` [Example 70, (R)-5-(8-methoxy-[1,2,4]triazolo[1,5-a]pyridin-6-yl)-6-methyl-1-(1-(tetrahydro-2H-pyran-4-yl)piperidin-3-yl)-1,3-dihydro-2H-benzo[d]imidazol-2-one], inhibition was half-maximal at 163 nM (IC50).
For `COc1cc(-c2cc3[nH]c(=O)n([C@@H]4CCCN(CCC(F)(F)F)C4)c3cc2C)cn2ncnc12` [Example 68, (R)-5-(8-methoxy-[1,2,4]triazolo[1,5-a]pyridin-6-yl)-6-methyl-1-(1-(3,3,3-trifluoropropyl)piperidin-3-yl)-1,3-dihydro-2H-benzo[d]imidazol-2-one], the IC50 was 414 nM.
`Cc1cc2c(cc1-c1cc(C)c3ncnn3c1)[nH]c(=O)n2[C@@H]1CCCN(CC2CCOCC2)C1` [Example 41, (R)-6-methyl-5-(8-methyl-[1,2,4]triazolo[1,5-a]pyridin-6-yl)-1-(1-((tetrahydro-2H-pyran-4-yl)methyl)piperidin-3-yl)-1,3-dihydro-2H-benzo[d]imidazol-2-one] yielded a 50% inhibitory concentration (IC50) of 12.3 nM.
